Test [1] addresses α1B (Cav2.2), β3 and α2δ subunits of the N-type calcium channel (stable HEK cell line) (Rattus norvegicus, UniProt Q02294). Description: Calcium-dye indicator assay (FDSS, KCl depolarization). The class given is cell-based. The conditions noted are these: calcium mobilization response to 50 mM KCl; six-point concentration-response. As for the experimental part: A stable cell line (HEK parent) co-expressing the α1B (Cav2.2), β3 and α2δ subunits of the N-type calcium channel subunits was used. These cells were routinely grown as monolayers in low glucose-containing Dulbecco's Modified Eagle Medium supplemented with 10% FBS, 2 mM L-glutamine, 100 I.U./mL penicillin, 100 μg/mL streptomycin, 400 μg/mL G418 and 200 μg/mL Zeocin (split ratio=1:5). Cells were maintained in 5% CO2 at 37° C. Compounds of Formula (I) were prepared as 10 mM stocks in DMSO from neat compound, if available. Otherwise, the 5 or 10 mM DMSO stock solutions provided in-house were used.
Calcium mobilization responses to KCl depolarization were evaluated by measuring the intensity of calcium-mediated fluorescent signal in the presence of BD Calcium Assay Dye (BD Biosciences, Franklin Lakes, N.J., U.S.A.), utilizing a Functional Drug Screening System (FDSS) by Hamamatsu Corporation (Bridgewater, N.J., U.S.A.).
Twenty-four hours prior to assay, cells were seeded in clear-base poly-D-lysine coated 384-well plates (BD Biosciences) at a density of 5,000 cells per well in culture medium and grown overnight in 5% CO2 at 37° C. On the day of assay growth media were removed and cells were loaded with BD calcium assay dye (BD Biosciences) for 35 min at 37° C. under 5% CO2 and then for 25 min at room temperature. Utilizing the FDSS, cells were exposed to representative compounds of Formula (I) at varying concentrations and intracellular calcium was measured for 5 min prior to the addition of 50 mM KCl for an additional 3 min of measurement.
Maximal fluorescence intensity (FI) achieved upon addition of 50 mM KCl was exported from the FDSS software and further analyzed using GraphPad Prism 4 (Graph Pad Software Inc., CA, U.S.A.). Data were normalized to the maximum average counts from quadruplicate wells for each condition in the presence of 50 mM KCl and to the minimum average counts in the presence of buffer. Theoretical curves were generated using nonlinear regression curve-fitting analysis of either sigmoidal concentration-response or sigmoidal concentration-response (variable slope), and the IC50 values with the best-fit dose curve determined by GraphPad Prism were reported.
For orientation: Calcium assays in cells follow changes in intracellular calcium, usually with a dye or a luminescent sensor.

Test [2] relates to Cav2.2 (N-type calcium channel; α1B, α2δ and β3 subunits stably expressed in HEK293 cells). The experiment in a line: Automated electrophysiology assay (QPatch-HT patch clamp). The test is classed as cell-based. As for the experimental part:
The Cav2.2 (α1B) subunit (GenBank accession no. AAO53230; supplied by Lipscombe's laboratory at Brown University) was subcloned into pcDNA3.1, whereas the α2δ (M86621) and β3 (M88751) subunits were subcloned into pBudCE4.1 vectors. Stable cell lines expressing all three subunits were generated according to the following procedure: 1) HEK293 cells were transfected with α2δ−1/β3 expression constructs resulting in a stable cell line expressing α2δ−1 and β3 subunits that were selected under 200 μg/mL of Zeocin; 2) a stable cell line expressing α2δ−1/β3 subunits in high quantity as evidenced in its Western blots was isolated from the colony and purified; 3) this cell line was further transfected with Cav2.2 expression constructs, from which cells were subsequently selected under 400 μg/mL G418 and 200 μg/mL Zeocin; 4) these cells were clonally isolated, expanded and screened by Western blot analysis for expressing all three subunits
Cultures of cells stably expressing Cav2.2 were maintained at 37° C. in low glucose-containing Dulbecco's Modified Eagle medium (low glucose) under a 5% CO2 atmosphere. The medium was supplemented with 10% fetal bovine serum, 2 mM L-glutamine, 100 IU/mL penicillin, […] streptomycin, 400 μg/mL G418 and 200 μg/mL Zeocin.
High-throughput automated patch clamp system experiments were carried out using instruments (QPatch-HT) available from Sophion Biosciences, Inc. North Brunswick, N.J. Cells were grown in T175 flasks to 50%-90% confluence were enzymatically treated with Deatchin (Genlantis, San Diego, Calif., U.S.A.), centrifuged, rinsed and resuspended in 293 SFM II media (Life Technologies, Grand Island, N.Y., U.S.A.) supplemented with 25 mM HEPES (Sigma-Aldrich, St. Louis, Mo., U.S.A.) to a concentration of 2−3×10^6 cells/mL. Cells were added to automated cell preparation station on the QPatch-HT (Sophion Biosciences, North Brunswick, N.J., U.S.A.) and following a 10- to 30-min recovery period with gentle stirring, the assay protocol was initiated. During the automated cell preparation, cells were collected, centrifuged and resuspended in an extracellular (EC) solution containing 132 mM NaCl, 1.8 mM CaCl2, 5.4 mM KCl, 0.8 mM MgCl2, 10 mM glucose, and 10 mM HEPES (pH=7.4), adjusted with sucrose to 315 m0sm. The QPlate was primed with an intracellular solution containing 135 CsCl, 10 mM EGTA, 4 MgATP, 0.3 NaGTP, and 20 mM HEPES (pH=7.2), adjusted to approximately 290 m0sm with deionized water and the EC solution. Cells were added to the prepared QPlate wells by robotic pipettes of the QPatch-HT.
For cells determined to be in stable whole-cell patch clamp, the EC solution was replaced with a barium (Ba)/triethylammonium (TEA) solution containing 140 mM TEA-Cl, 10 mM BaCl2, 0.8 mM MgCl2, 10 mM glucose, and 10 mM HEPES (pH=7.4). High (40 mM) BaCl2 concentrations were made with adjustments of TEA-Cl (90 mM) to maintain the osmolarity. From a resting potential of −80 mV, a train of depolarizing pulses (15 pulses at 5 Hz, +20 mV) was delivered to the cell once every 30 sec for eight trains (4 min total), and the resulting currents were measured during a control period (no compound). This protocol was repeated for each subsequent addition of control buffer with or without compound (three periods total, each with four trains). The current generated in the 1st and 15th pulses of the last train of each period in the presence of each drug concentration was normalized to the current generated during the control period at the respective pulses (representing low- and high frequency stimulation, respectively). Data from both the second and third drug application period were analyzed for each cell. A final addition of Ba/TEA solution containing 60-100 uM CdCl2 was made to block all N-type current and “zero” the currents for each cell. A buffer/compound additions were made using a “spitting” feature of the QPatch-HT, which added three repretitions of 5 μL solution at the beginning of each recording period.
For orientation: Patch clamp records ionic current or voltage across a cell membrane.

The mark [3] stands for this setting: 0.1 μM, high frequency stimulation (15th pulse of 5 Hz train).
Setting [4] is: 0.1 μM, low frequency stimulation (1st pulse of train).

pIC50: −log10 of the molar value.

Broadly, the pIC50 is the negative decadic logarithm of the IC50, by convention in mol/L.

For `COc1ccccc1-n1nc([C@@H]2CCO[C@@H](C(C)C)C2)cc1-c1ccc(Cl)cc1` (relative stereo) [Compound 69, 5-(4-Chlorophenyl)-1-(2-methoxyphenyl)-3-[(trans)-2-(1-methylethyl)tetrahydro-2H-pyran-4-yl]-1H-pyrazole], the pIC50 in test [1] is 7.70.

For `CC(C)Oc1ccccc1-n1nc(C2CC(C)(C)OC(C)(C)C2)cc1-c1ccc(Cl)cc1` [Compound 7, 5-(4-Chlorophenyl)-1-[2-(1-methylethoxy)phenyl]-3-(2,2,6,6-tetramethyltetrahydro-2H-pyran-4-yl)-1H-pyrazole], the pIC50 in test [1] was 8.92.

In the case of `COc1ccccc1-n1nc(C2CC(C)(C)OC(C)(C)C2)cc1-c1ccc(N(C)C)cc1` [Compound 11, 4-[1-(2-Methoxyphenyl)-3-(2,2,6,6-tetramethyltetrahydro-2H-pyran-4-yl)-1H-pyrazol-5-yl]-N,N-dimethylaniline], in test [1], the pIC50 was 8.62.

Turning to `COc1ccccc1-n1nc(C2CC(C)(C)OC(C)(C)C2)cc1-c1ccc2c(ccn2C)c1` [Compound 21, 5-[1-(2-Methoxyphenyl)-3-(2,2,6,6-tetramethyltetrahydro-2H-pyran-4-yl)-1H-pyrazol-5-yl]-1-methyl-1H-indole], the pIC50 in test [1] is 8.24.

`COc1ccccc1-n1nc(C2CC(C)(C)OC(C)(C)C2)cc1-c1ccc(OC(C)C)cc1` [Compound 24, 1-(2-Methoxyphenyl)-5-[4-(1-methylethoxy)phenyl]-3-(2,2,6,6-tetramethyltetrahydro-2H-pyran-4-yl)-1H-pyrazole]: the pIC50 in test [1] is 7.96.

Regarding `COc1ccccc1-n1nc(C2CC(C)(C)OC(C)(C)C2)cc1-c1ccnc(Cl)c1` [Compound 25, 2-Chloro-4-[1-(2-methoxyphenyl)-3-(2,2,6,6-tetramethyltetrahydro-2H-pyran-4-yl)-1H-pyrazol-5-yl]pyridine], the “QPatch % Inhibition, High Freq” value in test [2] (setting [3]) amounted to 29%. Moreover, the “QPatch % Inhibition, Low Freq” value in test [2] (setting [4]) was 14%.

On to `COc1ccccc1-n1nc(C2CC(C)(C)OC(C)(C)C2)cc1-c1ccc2c(c1)OCCO2` [Compound 27, 5-(2,3-Dihydro-1,4-benzodioxin-6-yl)-1-(2-methoxyphenyl)-3-(2,2,6,6-tetramethyltetrahydro-2H-pyran-4-yl)-1H-pyrazole], for which the negative-log IC50 (pIC50) in test [1] is 8.82.

On to `COc1ccc(-c2cc(C3CC(C)(C)OC(C)(C)C3)nn2-c2ccccc2OC)cc1OC` [Compound 29, 5-(3,4-Dimethoxyphenyl)-1-(2-methoxyphenyl)-3-(2,2,6,6-tetramethyltetrahydro-2H-pyran-4-yl)-1H-pyrazole], for which the negative logarithm of the IC50 (pIC50) in test [1] is 7.24.

Take `COc1ccccc1-n1nc(C2CC(C)(C)OC(C)(C)C2)cc1-c1ccncc1` [Compound 32, 4-[1-(2-Methoxyphenyl)-3-(2,2,6,6-tetramethyltetrahydro-2H-pyran-4-yl)-1H-pyrazol-5-yl]pyridine]: the pIC50 in test [1] was 6.85.

Consider `COc1ccccc1-n1nc(C2CC(C)(C)OC(C)(C)C2)cc1-c1ccnc(C)c1` [Compound 33, 4-[1-(2-Methoxyphenyl)-3-(2,2,6,6-tetramethyltetrahydro-2H-pyran-4-yl)-1H-pyrazol-5-yl]-2-methylpyridine], for which the pIC50 in test [1] is 7.09.

Take `COc1cncc(-c2cc(C3CC(C)(C)OC(C)(C)C3)nn2-c2ccccc2OC)c1` [Compound 34, 3-Methoxy-5-[1-(2-methoxyphenyl)-3-(2,2,6,6-tetramethyltetrahydro-2H-pyran-4-yl)-1H-pyrazol-5-yl]-pyridine]: the pIC50 in test [1] is 6.92.

Consider `COc1ccccc1-n1nc(C2CC(C)(C)OC(C)(C)C2)cc1-c1ccccc1NC(C)=O` [Compound 36, N-{2-[1-(2-Methoxyphenyl)-3-(2,2,6,6-tetramethyltetrahydro-2H-pyran-4-yl)-1H-pyrazol-5-yl]-phenyl}-acetamide], for which, in test [1], the pIC50 is 6.84.

`COc1ccccc1-n1nc(C2CC(C)(C)OC(C)(C)C2)cc1C1=CCCC1` [Compound 37, 5-Cyclopent-1-en-1-yl-1-(2-methoxyphenyl)-3-(2,2,6,6-tetramethyltetrahydro-2H-pyran-4-yl)-1H-pyrazole]: the pIC50 in test [1] was 7.47.

Regarding `COc1ccccc1-n1nc(C2CC(C)(C)OC(C)(C)C2)cc1-c1ccc([S+](C)[O-])cc1` (stereo not drawn) [Compound 47, 5-(4-Methanesulfinyl-phenyl)-1-(2-methoxy-phenyl)-3-(2,2,6,6-tetramethyl-tetrahydro-pyran-4-yl)-1H-pyrazole], the “QPatch % Inhibition, High Freq” value in test [2] (setting [3]) came to 28%. For the same compound, in test [2] (setting [4]), the “QPatch % Inhibition, Low Freq” value is given as 25%.

For `CC1(C)CC(c2cc(-c3ccc(Cl)cc3)n(-c3ccccn3)n2)CC(C)(C)O1` [Compound 50, 2-[5-(4-Chloro-phenyl)-3-(2,2,6,6-tetramethyl-tetrahydro-pyran-4-yl)-pyrazol-1-yl]-pyridine], in test [2] (0.1 µM), the “QPatch % Inhibition, High Freq” value was found to be 1% and the “QPatch % Inhibition, Low Freq” value is given as −37%.

Consider `CC1(C)CC(c2cc(-c3ccc(Cl)cc3)n(-c3ccncc3)n2)CC(C)(C)O1` [Compound 51, 4-[5-(4-Chlorophenyl)-3-(2,2,6,6-tetramethyltetrahydro-2H-pyran-4-yl)-1H-pyrazol-1-yl]-pyridine], for which, in test [2] (0.1 µM), the “QPatch % Inhibition, High Freq” value is listed as 22% and the “QPatch % Inhibition, Low Freq” value is −17%.

`COc1ccccc1-n1nc(C2CC(C)(C)SC(C)(C)C2)cc1-c1ccc(Cl)cc1` [Compound 58, 5-(4-Chloro-phenyl)-1-(2-methoxy-phenyl)-3-(2,2,6,6-tetramethyl-tetrahydro-thiopyran-4-yl)-1H-pyrazole]: the “QPatch % Inhibition, High Freq” value in test [2] (setting [3]) stood at 26%. In addition, the “QPatch % Inhibition, Low Freq” value in test [2] (setting [4]) came to 19%.

As for `COc1ccccc1-n1nc(C2CC(C)(C)S(=O)(=O)C(C)(C)C2)cc1-c1ccc(Cl)cc1` [Compound 59, 5-(4-Chlorophenyl)-1-(2-methoxyphenyl)-3-(2,2,6,6-tetramethyl-1,1-dioxidotetrahydro-2H-thiopyran-4-yl)-1H-pyrazole], the “QPatch % Inhibition, High Freq” value in test [2] (setting [3]) was determined as 54%. Moreover, the “QPatch % Inhibition, Low Freq” value in test [2] (setting [4]) turned out to be 54%.

The values above are taken from patent US8901314B2, “Substituted pyrazoles as N-type calcium channel blockers” (Janssen Pharmaceutica NV, priority 2012, dated 2014).
